These results are taken from patent US11434241B2, “Pyrimidine derivatives for prevention and treatment of bacterial infections” (UNIVERSITE DE LIEGE, priority 2018, dated 2022).

For test [1], the system named is Staphylococcus epidermidis (ATCC 35984, also known as RP62A or MRSE). The test is described as follows: MIC determination on S. epidermidis (EUCAST, OD600 after overnight growth in MHB). It counts as cell-based. The protocol:
The Minimal Inhibitory Concentration (MIC) of molecules 2329, 2348, 2412, 2452 and 2461 was determined on Staphylococcus epidermidis (ATCC 35984, also known as RP62A) according to EUCAST (European Committee on Antimicrobial Susceptibility Testing) recommendations.
Briefly, a single colony grown on a Tryptic Soy Agar (TSA) plate was resuspended and cultured in Tryptic Soy Broth (TSB) overnight (O/N) in aerobic conditions (37° C. with 220 rpm shaking), next day a 1:50 inoculum in Mueller-Hinton broth (MHB) was incubated in aerobic conditions for 3 hr and an inoculum of 1:100 dilution, corresponding to 3×10^5 CFU/ml, was incubated in presence or absence of different concentrations of the molecules in 1% DMSO (vehicle). After O/N growth the OD of each culture was measured at 600 nm in a spectrophotometer (OD600). The MIC represents the concentration at which there is no visible growth of bacteria, i.e. ΔOD at 600 nm equal to zero (blank is the medium alone).
The Minimal Inhibitory Concentration (MIC) of pyrazolopyrimidine molecules 2539, 2544, 2666,2676, 2693, 2783, 2784 and 2782 and of purine molecules 2498, 2511, 2525, 2527, 2833, and 2840 was determined on S. epidermidis (ATCC 35984, also known as RP62A or MRSE) according to EUCAST (European Committee on Antimicrobial Susceptibility Testing) recommendations.
Briefly, a single colony grown on an agar plate was resuspended and cultured in Triptic Soy Broth (TSB) medium overnight (O/N) in aerobic conditions (37° C. with 220 rpm shaking), next day a 1:50 inoculum in Mueller-Hinton broth (MHB) was incubated in aerobic conditions for 3 hr (OD=0.08-0.1) and an inoculum of 1:300 dilution, corresponding to 3×10^5 CFU/ml, was incubated in presence or absence of different concentrations of each of the molecules in 1% DMSO (vehicle). After O/N growth the OD of each culture was measured at 600 nm (600) in a spectrophotometer (Victor 3-Perkin Elmer). The MIC represents the concentration at which there is no visible growth of bacteria, i.e. ΔOD at 600 nm equal to zero (where ΔOD is the difference between the OD with the molecule and the OD of the blank, the medium alone).
(§1) Molecule 36z has been tested for its potential antibacterial activity by determining its minimal inhibitory concentration (MIC) according to protocols recommended by EUCAST to assess the efficacy of antibiotics against bacterial strains. In brief MIC in MRSA (ATCC BAA-1556) or in Xen29 (Perkin Elmer-ATCC 12600) for 36z (molecule 25 in WO2009/034386) was determined by culturing a single colony of MRSA or Xen29 in brain heart infusion (BHI) broth overnight (O/N) in aerobic conditions (37° C. with 220 rpm shaking), while MIC for MRSE (ATCC 35984) was determined by culturing MRSE in TSB O/N. Next day a 1:100 inoculum in Mueller-Hinton broth (MHB) is incubated in aerobic conditions for 3 hr (OD=0.08-0.1) and an inoculum of 1:300 dilution, corresponding to 3×10^5 CFU/ml, is incubated in presence or absence of different concentrations of the tested molecules in 1% DMSO. After O/N growth the OD of each culture was measured at 600 nm (OD600) in a spectrophotometer (Victor 3-Perkin Elmer). The MIC represents the concentration at which there is no visible growth of bacteria, i.e. ΔOD at 600 nm equal to zero (blank is the medium alone). No antibacterial activity was found against MRSA (ATCC BAA-1556), Xen29 (Perkin Elmer-ATCC 12600 or MRSE (ATCC 35984) strains when the molecule was used at concentrations up to 200 μM.

Test [2] relates to methicillin-resistant S. aureus (MRSA) ATCC BAA-1556. The test is described as follows: MIC determination on methicillin-resistant S. aureus. It counts as cell-based, Staphylococcus aureus. The settings on record: for antibacterial activity against MRSA (in words): MHB medium; for MIC: Staphylococcus aureus. The protocol: (§2) Further experiments are conducted using different strains of S. aureus, as clinically relevant Gram-positive bacterial strains: S. aureus ATCC 25904, methicillin-resistant S. aureus (MRSA) ATCC BAA-1556, Glycopeptide intermediate-resistant (GISA) S. aureus Mu-50 (ATCC 700695) in order to determine the Minimal Inhibitory Concentration (MIC) which is the minimal concentration required to prevent bacterial growth. The bioluminescent strain S. aureus Xen29 (ATCC 12600) was also used. This strain is derived from the parental strain S. aureus ATCC 12600, a pleural fluid isolate, which is also designated as NCTC8532.
(§3) A single colony selected from the different strains of S. aureus is resuspended and cultured in brain heart infusion (BHI) broth overnight (O/N) in aerobic conditions (37° C. with 220 rpm shaking), next day a 1:100 inoculum in Mueller-Hinton broth (MHB) is incubated in aerobic conditions for 3 hr (=OD0.08-0.1) and an inoculum of 1:300 dilution, corresponding to 3×10^5 CFU/ml, is incubated in presence or absence of different concentrations of the tested molecules in 1% DMSO. After O/N growth the OD of each culture was measured at 600 nm (OD600) in a spectrophotometer (Victor 3-Perkin Elmer). The MIC represents the concentration at which there is no visible growth of bacteria, i.e. ΔOD at 600 nm equal to zero (blank is the medium alone). […] The MIC of molecule 2329 against Glycopeptide intermediate-resistant (GISA) S. aureus Mu-50 (ATCC 700695) is in between 25 and 30 μM, while it is above 50 μM for molecules 2348, 2412, and 2452.
(§4) Further experiments are conducted using different strains of S. aureus, as clinically relevant Gram-positive bacterial strains: methicillin-resistant S. aureus (MRSA) ATCC BAA-1556 and S. aureus Xen29 (Perkin Elmer ATCC 12600).
(§5) To determine the MIC of the above mentioned molecules in MRSA or in Xen29, a single colony of MRSA or Xen29 is resuspended and cultured in brain heart infusion (BHI) broth overnight (O/N) in aerobic conditions (37° C. with 220 rpm shaking), next day a 1:100 inoculum in Mueller-Hinton broth (MHB) is incubated in aerobic conditions for 3 hr (OD=0.08-0.1) and an inoculum of 1:300 dilution, corresponding to 3×10^5 CFU/ml, is incubated in presence or absence of different concentrations of the tested molecules in 1% DMSO. After O/N growth the OD of each culture was measured at 600 nm (OD600) in a spectrophotometer (Victor 3-Perkin Elmer). The MIC represents the concentration at which there is no visible growth of bacteria, i.e. ΔOD at 600 nm equal to zero (blank is the medium alone).
as §1

Another test deals with MRSE. The test is described as follows: Minimal Bactericidal Concentration (MBC) for MRSE. It is filed as cell-based, Staphylococcus epidermidis. How it is done:
We have determined the Minimal Bactericidal Concentration (MBC) of the pyrazolopyrimidine molecule 2666 for the MRSA strain and the MBC of the purine molecules 2329 and 2833 for MRSA and the MRSE strain respectively.
To determine the MBC, bacteria were grown as per MIC determination in presence of the pyrazolopyrimidine molecule 2666 for MRSA or in presence of the purine molecule 2833 for MRSE or 2329 for MRSA. At 24 hours bacteria were plated on TSB agar plates by the broth microdilution method, and colonies formed on the plates were counted next day.
The MBC represents the lowest concentration at which 99.9% bacteria of the initial inoculum are killed over 24 hours.

Test [3] relates to S. aureus Xen29 (ATCC 12600). The test is described as follows: MIC determination on bioluminescent S. aureus Xen29. It is filed as cell-based, Staphylococcus aureus. The note with it: for MIC: Staphylococcus aureus. The protocol: as §2, §3, §4, §5, §1
For test [4], the target named is Murl isozyme from E. faecalis (Enterococcus faecalis, UniProt Q836J0). The note with it: read-out: IC50 Murl isozyme from E. faecalis; Table 9 of WO2009/034386; cited from earlier work.
Test [5] concerns Murl isozyme from E. faecium. The settings on record: Table 9 of WO2009/034386; cited from earlier work.
In the next test the test system is S. aureus ATCC 25904. The test is described as follows: MIC determination on S. aureus ATCC 25904. It counts as cell-based. The note with it: Staphylococcus aureus, ATCC25904, read-out: MIC S. aureus ATCC25904. The protocol:
as §2, §3

In test [6] the test system is vancomycin-resistant (VRE) E. faecalis ATCC BAA-2365. The test is described as follows: MIC determination on vancomycin-resistant E. faecalis. It counts as cell-based, Enterococcus faecalis. The note with it: Mueller-Hinton broth (MHB). The protocol: Further experiments were conducted using the clinically relevant Gram-positive bacterial strain of vancomycin-resistant (VRE) E. faecalis ATCC BAA-2365, in order to determine the Minimal Inhibitory Concentration (MIC) which is the minimal concentration required to prevent bacterial growth.
A single colony selected from E. faecalis VRE is resuspended and cultured in the brain heart infusion (BHI) broth overnight (O/N) in aerobic conditions (37° C. with 220 rpm shaking), next day a 1:100 inoculum in Mueller-Hinton broth (MHB) is incubated in aerobic conditions for 3 hr (OD=0.08-0.1) and an inoculum of 1:300 dilution, corresponding to 3×10^5 CFU/ml, is incubated in presence or absence of different concentrations of the tested molecules in 1% DMSO. After O/N growth the OD of each culture is measured at 600 nm (OD600) in a spectrophotometer (Victor 3-Perkin Elmer). The MIC represents the concentration at which there is no visible growth of bacteria, i.e. ΔOD at 600 nm equal to zero (blank is the medium alone).

Setting [7] is: Staphylococcus epidermidis, MHB medium, tested up to 100 μM, read-out: MIC MRSE.
The mark [8] stands for this setting: Staphylococcus epidermidis, read-out: MIC MRSE (comparison molecules of WO2009/034386).
Setting [9] is: ATCC12600, read-out: MIC Xen29 (comparison molecules of WO2009/034386).
[10] abbreviates: read-out: MIC MRSA (comparison molecules of WO2009/034386).

The MBC is the smallest concentration meeting the test's criterion for killing. Broadly, the IC50 is the concentration at which inhibition is half-maximal.

The structures appear in SMILES notation. ≈ marks a conversion by molar mass, not a printed value. Like-named read-outs stand apart in the source and are kept apart here. Bounds are passed on as bounds.

Chain of Murl isozyme from E. faecalis (Q836J0 whole entry): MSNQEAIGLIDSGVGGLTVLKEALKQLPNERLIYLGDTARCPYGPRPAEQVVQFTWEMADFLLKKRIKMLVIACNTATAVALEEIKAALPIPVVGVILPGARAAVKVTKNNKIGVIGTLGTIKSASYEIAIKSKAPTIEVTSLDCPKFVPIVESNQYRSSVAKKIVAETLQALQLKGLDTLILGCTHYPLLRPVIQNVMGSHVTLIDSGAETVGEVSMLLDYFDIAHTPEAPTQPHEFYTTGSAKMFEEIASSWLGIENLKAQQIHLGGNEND

As to `CCCCSc1nc(N[C@@H]2C[C@H]2c2ccc(F)c(F)c2)c2ncn(C)c2n1` [Molecule 2833, 2-(butylthio)-N-((1R,2S)-2-(3,4-difluorophenyl)cyclopropyl)-9-methyl-9H-purin-6-amine], the “antibacterial activity / inhibition of MRSE growth (in words)” value in test [1] (MHB medium) is listed as “able to inhibit MRSE growth”. Besides, the MIC in test [1] (setting [7]) came out at 30 µM (≈ 11.7 µg/mL); in test [2] (read-out: MIC MRSA), 50 µM (≈ 19.5 µg/mL). Moreover, the “antibacterial activity against MRSA (in words)” value in test [2] is reported as “active”. The “MBC relative to MIC, MRSE” value in the test on MRSE is listed as “around 2 times”. In the test on MRSE (Staphylococcus epidermidis, MRSE, 99.9% of initial inoculum killed over 24 hours), this compound displayed an MBC of 50 µM (≈ 19.5 µg/mL).
`CCCCSc1nc(N)c2ncn(Cc3c(F)ccc(Cl)c3F)c2n1` [Molecule 36z, 2-(Butylthio)-9-(3-chloro-2,6-difluorobenzyl)-9H-purin-6-amine, reference compound]: the MIC in test [1] (setting [8]), in test [3] (setting [9]) and in test [2] (setting [10]) was greater than 200 µM each time. The IC50 in test [4] was 2 µM; in test [5], 5 µM.
In the case of `CCSc1nc(N[C@@H]2C[C@H]2c2ccc(F)c(F)c2)c2ncn(CC)c2n1` [Molecule 2527, N-((1R,2S)-2-(3,4-difluorophenyl)cyclopropyl)-9-ethyl-2-(ethylthio)-9H-purin-6-amine], the “antibacterial activity / inhibition of MRSE growth (in words)” value in test [1] (MHB medium) was “able to inhibit MRSE growth”. In addition, the MIC in test [1] (setting [7]) worked out at 25 µM (≈ 9.39 µg/mL); in test [3] (ATCC12600, read-out: MIC Xen29), 30 µM (≈ 11.3 µg/mL); in test [2] (read-out: MIC MRSA), 25 µM (≈ 9.39 µg/mL). Also, the “antibacterial activity / inhibition of Xen29 growth (in words)” value in test [3] (MHB medium) is “able to inhibit”. Also, the “antibacterial activity against MRSA (in words)” value in test [2] is on record as “active”.
Take `CCCn1ncc2c(N[C@@H]3C[C@H]3c3ccc(F)c(F)c3)nc(SC)nc21.Cl` [Molecule 2693, N-((1R,2S)-2-(3,4-difluorophenyl)cyclopropyl)-6-(methylthio)-1-propyl-1H-pyrazolo[3,4-d]pyrimidin-4-amine hydrochloride]: the MIC in test [1] (MHB medium, tested up to 100 μM, hydrochloride, read-out: MIC MRSE) is greater than 100 µM; in test [1] (Staphylococcus epidermidis, read-out: MIC MRSE), greater than 100 µM; in test [3] (ATCC12600, read-out: MIC Xen29) it was greater than 100 µM; in test [2] (read-out: MIC MRSA) it was 20 µM. For the same compound, in test [2], the “antibacterial activity against MRSA (in words)” value was “active”.
Regarding `CCCSc1nc(N[C@@H]2C[C@H]2c2ccc(F)c(F)c2)c2ncn([C@@H]3C[C@H](O)[C@@H](O)[C@H]3O)c2n1` [Molecule 2461, (1S,2R,3S,4R)-4-(6-(((1R,2S)-2-(3,4-difluorophenyl)cyclopropyl)amino)-2-(propylthio)-9H-purin-9-yl)cyclopentane-1,2,3-triol], the MIC was 20 µM (≈ 9.55 µg/mL) in test [1] (Staphylococcus epidermidis, Mueller-Hinton broth (MHB), read-out: MIC S. epidermidis RP62); 20 to 25 µM (≈ 9.55 to 11.9 µg/mL) with S. aureus ATCC 25904; 20 to 25 µM (≈ 9.55 to 11.9 µg/mL) in test [3] (ATCC12600, read-out: MIC S. aureus Xen29); 25 µM (≈ 11.9 µg/mL) in test [2] (read-out: MIC S. aureus MRSA); 25 µM (≈ 11.9 µg/mL) in test [6].
With `CCCCOc1nc(NCc2cccnc2)c2ncn(Cc3c(F)ccc(Cl)c3F)c2n1` [37z″, 2-Butoxy-9-(3-chloro-2,6-difluorobenzyl)-N-(pyridin-3-ylmethyl)-9H-purin-6-amine, reference compound], the MIC in test [1] (setting [8]), in test [3] (setting [9]) and in test [2] (setting [10]) was greater than 200 µM in each case. The IC50 in test [5] was 5 µM.
